Measurements taken from patent publication US10798941B2, “Microbiocidal oxadiazole derivatives” (SYNGENTA PARTICIPATIONS AG, priority 2016, dated 2020).

What was measured:
[1] = tested on: Puccinia recondita f. Sp. Tritici; experiment: Puccinia recondita f. sp. tritici / wheat / leaf disc preventative (brown rust); format: in vivo; settings: foliar, 168 h, 200 ppm in the applied formulation, wheat leaf segments cv. Kanzler, preventative, inoculated 1 day after application, assessed 7 to 9 days after application, vs untreated, read-out: disease control
Outline: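 Wheat cv. Kanzler leaf segments on agar were sprayed with formulated compound in water, then inoculated with spores 1 day later. Incubated at 19° C, 75% rh, 12 h light/12 h dark; percent disease control versus untreated scored 7 to 9 days after application.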

[2] = tested on: Puccinia recondita f. Sp. Tritici; experiment: Puccinia recondita f. sp. tritici / wheat / leaf disc curative (brown rust); format: in vivo; settings: foliar, 144 h, 200 ppm in the applied formulation, wheat leaf segments cv. Kanzler, applied 1 day after inoculation, assessed 6 to 8 days after application, vs untreated, read-out: disease control
Outline: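 Curative test: wheat leaf segments cv. Kanzler on agar inoculated with spore suspension, kept dark at 19 °C/75% RH, then sprayed 1 day post-inoculation with compound diluted in water. Incubated at 19 °C, 75% RH, 12 h light/dark; percent disease control versus untreated scored 6–8 days after application.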

[3] = tested on: Glomerella Lagenarium (Colletotrichum Lagenarium); experiment: Glomerella lagenarium (Colletotrichum lagenarium) liquid culture / cucumber / preventative (anthracnose); format: cell-based; settings: Colletotrichum orbiculare; 20 ppm in the applied formulation; liquid culture in PDB, 24° C., inhibition of growth measured photometrically 3 to 4 days after application, vs untreated; read-out: disease control
Outline: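 Conidia from cryogenic storage were mixed into potato dextrose broth. This was added to compound diluted from DMSO into 0.025% Tween20, tested at 20 ppm. Plates were incubated in the dark at 24 °C and 96% relative humidity, and growth was read photometrically after 2–7 days as % activity versus untreated check.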

Phakopsora pachyrhizi = Phakopsora pachyrhizi / soybean / leaf disc preventative (Asian soybean rust); format: in vivo; settings: foliar, 288 h, 200 ppm in the applied formulation, soybean leaf disks, inoculated one day after application, assessed 12 to 14 days after application, vs untreated, read-out: disease control
Description: Leaf disks or leaf segments of various plant species are cut from plants grown in a greenhouse. The cut leaf disks or segments are placed in multiwell plates (24-well format) onto water agar. The leaf disks are sprayed with a test solution before (preventative) or after (curative) inoculation. Compounds to be tested are prepared as DMSO solutions (max. 10 mg/ml) which are diluted to the appropriate concentration with 0.025% Tween20 just before spraying. The inoculated leaf disks or segments are incubated under defined conditions (temperature, relative humidity, light, etc.) according to the respective test system. A single evaluation of disease level is carried out 3 to 14 days after inoculation, depending on the pathosystem. Percent disease control relative to the untreated check leaf disks or segments is then calculated.
Soybean leaf disks are placed on water agar in multiwell plates (24-well format) and sprayed with the formulated test compound diluted in water. One day after application leaf discs are inoculated by spraying a spore suspension on the lower leaf surface. After an incubation period in a climate cabinet of 24-36 hours in darkness at 20° C. and 75% rh leaf disc are kept at 20° C. with 12 h light/day and 75% rh. The activity of a compound is assessed as percent disease control compared to untreated when an appropriate level of disease damage appears in untreated check leaf disks (12 to 14 days after application).
The following compounds at 200 ppm in the applied formulation give at least 80% disease control in this test when compared to untreated control leaf disks under the same conditions, which show extensive disease development.

FC(F)(F)c1nc(-c2ccc(Cn3ccnc3Br)cc2)no1 [Compound 1.49, 3-[4-[(2-bromoimidazol-1-yl)methyl]phenyl]-5-(trifluoromethyl)-1,2,4-oxadiazole]
≥ 80%: pest or weed control at 200 ppm [1] | pest or weed control at 200 ppm [2] | inhibition of growth at 20 ppm [3] | pest or weed control at 200 ppm (Phakopsora pachyrhizi)

CC(C)c1nccn1Cc1ccc(-c2noc(C(F)(F)F)n2)cc1 [Compound 1.56, 3-[4-[(2-isopropylimidazol-1-yl)methyl]phenyl]-5-(trifluoromethyl)-1,2,4-oxadiazole]
≥ 80%: pest or weed control at 200 ppm [1] | pest or weed control at 200 ppm [2] | inhibition of growth at 20 ppm [3] | pest or weed control at 200 ppm (Phakopsora pachyrhizi)

FC(F)(F)c1nc(-c2ccc(Cn3cnc(Br)c3)cc2)no1 [Compound 1.79, 3-[4-[(4-bromoimidazol-1-yl)methyl]phenyl]-5-(trifluoromethyl)-1,2,4-oxadiazole]
≥ 80%: pest or weed control at 200 ppm [1] | pest or weed control at 200 ppm [2] | inhibition of growth at 20 ppm [3] | pest or weed control at 200 ppm (Phakopsora pachyrhizi)

O=Cc1ccn(Cc2ccc(-c3noc(C(F)(F)F)n3)cc2)n1 [Compound 1.85, 1-[[4-[5-(trifluoromethyl)-1,2,4-oxadiazol-3-yl]phenyl]methyl]pyrazole-3-carbaldehyde]
≥ 80%: pest or weed control at 200 ppm [1] | pest or weed control at 200 ppm [2] | inhibition of growth at 20 ppm [3] | pest or weed control at 200 ppm (Phakopsora pachyrhizi)

FC(F)(F)c1nc(-c2ccc(Cn3cc4ccccc4n3)cc2)no1 [Compound 1.86, 3-[4-(indazol-2-ylmethyl)phenyl]-5-(trifluoromethyl)-1,2,4-oxadiazole]
≥ 80%: pest or weed control at 200 ppm [1] | pest or weed control at 200 ppm [2] | inhibition of growth at 20 ppm [3] | pest or weed control at 200 ppm (Phakopsora pachyrhizi)

FC(F)(F)c1nc(-c2ccc(Cn3ncc4ccccc43)cc2)no1 [Compound 1.87, 3-[4-(indazol-1-ylmethyl)phenyl]-5-(trifluoromethyl)-1,2,4-oxadiazole]
≥ 80%: pest or weed control at 200 ppm [1] | pest or weed control at 200 ppm [2] | inhibition of growth at 20 ppm [3] | pest or weed control at 200 ppm (Phakopsora pachyrhizi)

COC(=O)c1cn(Cc2ccc(-c3noc(C(F)(F)F)n3)cc2)cn1 [Compound 1.88, methyl 1-[[4-[5-(trifluoromethyl)-1,2,4-oxadiazol-3-yl]phenyl]methyl]imidazole-4-carboxylate]
≥ 80%: pest or weed control at 200 ppm [1] | pest or weed control at 200 ppm [2] | inhibition of growth at 20 ppm [3] | pest or weed control at 200 ppm (Phakopsora pachyrhizi)

FC(F)(F)c1cn(Cc2ccc(-c3noc(C(F)(F)F)n3)cc2)cn1 [Compound 1.90]
≥ 80%: pest or weed control at 200 ppm [1] | pest or weed control at 200 ppm [2] | inhibition of growth at 20 ppm [3] | pest or weed control at 200 ppm (Phakopsora pachyrhizi)

Cc1nc(Br)cn1Cc1ccc(-c2noc(C(F)(F)F)n2)cc1 [Compound 1.91, 3-[4-[(4-bromo-2-methyl-imidazol-1-yl)methyl]phenyl]-5-(trifluoromethyl)-1,2,4-oxadiazole]
≥ 80%: pest or weed control at 200 ppm [1] | pest or weed control at 200 ppm [2] | inhibition of growth at 20 ppm [3] | pest or weed control at 200 ppm (Phakopsora pachyrhizi)

Cc1cc(C#N)nn1Cc1ccc(-c2noc(C(F)(F)F)n2)cc1 [Compound 1.93, 5-methyl-1-[[4-[5-(trifluoromethyl)-1,2,4-oxadiazol-3-yl]phenyl]methyl]pyrazole-3-carbonitrile]
≥ 80%: pest or weed control at 200 ppm [1] | pest or weed control at 200 ppm [2] | inhibition of growth at 20 ppm [3] | pest or weed control at 200 ppm (Phakopsora pachyrhizi)

FC(F)(F)c1nc(-c2ccc(Cn3cnc(I)c3)cc2)no1 [Compound 1.96, 3-[4-[(4-iodoimidazol-1-yl)methyl]phenyl]-5-(trifluoromethyl)-1,2,4-oxadiazole]
≥ 80%: pest or weed control at 200 ppm [1] | pest or weed control at 200 ppm [2] | inhibition of growth at 20 ppm [3] | pest or weed control at 200 ppm (Phakopsora pachyrhizi)

Cc1cc(C)n(Cc2ccc(-c3noc(C(F)(F)F)n3)cc2F)n1 [Compound 1.102, 3-[4-[(3,5-dimethylpyrazol-1-yl)methyl]-3-fluoro-phenyl]-5-(trifluoromethyl)-1,2,4-oxadiazole]
≥ 80%: pest or weed control at 200 ppm [1] | pest or weed control at 200 ppm [2] | inhibition of growth at 20 ppm [3] | pest or weed control at 200 ppm (Phakopsora pachyrhizi)

Fc1cc(-c2noc(C(F)(F)F)n2)ccc1Cn1ccnc1 [Compound 1.129, 3-[3-fluoro-4-(imidazol-1-ylmethyl)phenyl]-5-(trifluoromethyl)-1,2,4-oxadiazole]
≥ 80%: pest or weed control at 200 ppm [1] | pest or weed control at 200 ppm [2] | inhibition of growth at 20 ppm [3] | pest or weed control at 200 ppm (Phakopsora pachyrhizi)

FC(F)(F)c1nc(-c2ccc(Cn3cnc(Br)c3)nc2)no1 [Compound 1.136, 3-[6-[(4-bromoimidazol-1-yl)methyl]-3-pyridyl]-5-(trifluoromethyl)-1,2,4-oxadiazole]
≥ 80%: pest or weed control at 200 ppm [1] | pest or weed control at 200 ppm [2] | inhibition of growth at 20 ppm [3] | pest or weed control at 200 ppm (Phakopsora pachyrhizi)

O=C(O)c1cnn(Cc2ccc(-c3noc(C(F)(F)F)n3)cc2)c1 [Compound 1.147, 1-[[4-[5-(trifluoromethyl)-1,2,4-oxadiazol-3-yl]phenyl]methyl]pyrazole-4-carboxylic acid]
≥ 80%: pest or weed control at 200 ppm [1] | pest or weed control at 200 ppm [2] | inhibition of growth at 20 ppm [3] | pest or weed control at 200 ppm (Phakopsora pachyrhizi)

O=Cc1cn(Cc2ccc(-c3noc(C(F)(F)F)n3)cc2)cn1 [Compound 1.151, 1-[[4-[5-(trifluoromethyl)-1,2,4-oxadiazol-3-yl]phenyl]methyl]imidazole-4-carbaldehyde]
≥ 80%: pest or weed control at 200 ppm [1] | pest or weed control at 200 ppm [2] | inhibition of growth at 20 ppm [3] | pest or weed control at 200 ppm (Phakopsora pachyrhizi)

N#Cc1cn(Cc2ccc(-c3noc(C(F)(F)F)n3)cc2)cn1 [Compound 1.154, 1-[[4-[5-(trifluoromethyl)-1,2,4-oxadiazol-3-yl]phenyl]methyl]imidazole-4-carbonitrile]
≥ 80%: pest or weed control at 200 ppm [1] | pest or weed control at 200 ppm [2] | inhibition of growth at 20 ppm [3] | pest or weed control at 200 ppm (Phakopsora pachyrhizi)

FC(F)Sc1nc(-c2ccc(Cl)cc2)cn1Cc1ccc(-c2noc(C(F)(F)F)n2)cc1 [Compound 1.174, 3-[4-[[4-(4-chlorophenyl)-2-(difluoromethyl-sulfanyl)imidazol-1-yl]methyl]phenyl]-5-(trifluoromethyl)-1,2,4-oxadiazole]
≥ 80%: pest or weed control at 200 ppm [1] | pest or weed control at 200 ppm [2] | inhibition of growth at 20 ppm [3] | pest or weed control at 200 ppm (Phakopsora pachyrhizi)

COC(=O)c1cccc2nn(Cc3ccc(-c4noc(C(F)(F)F)n4)cc3)cc12 [Compound 1.192, methyl 2-[[4-[5-(trifluoromethyl)-1,2,4-oxadiazol-3-yl]phenyl]methyl]indazole-4-carboxylate]
≥ 80%: pest or weed control at 200 ppm [1] | pest or weed control at 200 ppm [2] | inhibition of growth at 20 ppm [3] | pest or weed control at 200 ppm (Phakopsora pachyrhizi)

Nc1nc(C(F)(F)F)nn1Cc1ccc(-c2noc(C(F)(F)F)n2)cc1 [Compound 1.200, 5-(trifluoromethyl)-2-[[4-[5-(trifluoromethyl)-1,2,4-oxadiazol-3-yl]phenyl]methyl]-1,2,4-triazol-3-amine]
≥ 80%: pest or weed control at 200 ppm [1] | pest or weed control at 200 ppm [2] | inhibition of growth at 20 ppm [3] | pest or weed control at 200 ppm (Phakopsora pachyrhizi)
